From ChEMBL document CHEMBL5236615, “Discovery of Novel N-Heterocyclic-Fused Deoxypodophyllotoxin Analogues as Tubulin Polymerization Inhibitors Targeting the Colchicine-Binding Site for Cancer Treatment” (J Med Chem, 2022)
The source made the active and inactive calls. No cut-off for these calls is given here.

Tests used:
[1] = system: MCF7; assay: Induction of apoptosis in human MCF7 cells assessed as upregulation of p-Bim L protein expression at 5 to 20 nM in presence of roscovitine measured after 24 hrs by Western blot analysis; assay type: functional, cell-based; details: dose 5-20 nM
[2] = Antitumor activity against paclitaxel-resistant human MCF7/TxR cells xenografted in Balb/c mouse assessed as tumor growth inhibition at 10 mg/kg, ip administered for every 2 days for 21 days; assay type: functional; details: 504 h, time 21 day, read-out: TGI
[3] = Antitumor activity against paclitaxel-resistant human MCF7/TxR cells xenografted in Balb/c mouse assessed as tumor growth inhibition at 20 mg/kg, ip administered for every 2 days for 21 days; assay type: functional; details: 504 h, time 21 day, read-out: TGI
[4] = Cardiotoxicity in Sprague-Dawley rat assessed as RR interval at 10 to 60 mg/kg, iv measured upto 60 mins by electrocardiography; assay type: toxicity, organism-based; details: in vivo, 1 h, dose 10-60 mg/kg
[5] = Cardiotoxicity in Sprague-Dawley rat assessed as Qt interval at 10 to 60 mg/kg, iv measured upto 60 mins by electrocardiography; assay type: toxicity, organism-based; details: in vivo, 1 h, dose 10-60 mg/kg
[6] = Volume of distribution at steady sate in Sprague-Dawley rat at 10 mg/kg, iv measured upto 8 hrs by LC/MS/MS analysis; assay type: ADME, organism-based; details: in vivo, read-out: Vdss

## COc1c(Cl)cc([C@@H]2c3cc4c(cc3C[C@H]3C(=O)NC(=O)N23)OCCO4)cc1Cl
[1]
  Activity: inactive
[2]
  inhibition in vivo at 10 mg/kg: 49.2%
[3]
  inhibition in vivo at 20 mg/kg: 67.7%
[4]
  Activity: Non-Toxic
[5]
  Activity: Non-Toxic
[6]
  Vd: 6.99 L/kg
